From PMC7554340, “A Novel Dual-Targeted α-Helical Peptide With Potent Antifungal Activity Against Fluconazole-Resistant Candida albicans Clinical Isolates” (Frontiers in Microbiology, 2020)
Values after ≈ are worked out from the molar mass of the structure shown. Read-outs that look alike come from different tables or passages of the source. No end group written: not given here.

Key:
[1] = tested on: C. albicans 14936; experiment: microbe, parasite or virus in culture; settings: Candida albicans, 14936, 48 h; for MIC: pH 7
[2] = tested on: C. albicans sp3902; experiment: microbe, parasite or virus in culture; settings: Candida albicans, SP3902, 48 h; for MIC: pH 7
[3] = tested on: C. albicans cgmcc 2.2086; assay type: cell-based, Candida albicans
[4] = tested on: C. tropicalis cgmcc 2.1975; experiment: Antifungal activity assay (broth microdilution, MIC/MFC); assay type: cell-based, Candida tropicalis
[5] = tested on: C. albicans 56452; experiment: microbe, parasite or virus in culture; settings: Candida albicans, 56452, 48 h; for MIC: pH 7
[6] = tested on: C. albicans 58288; experiment: microbe, parasite or virus in culture; settings: Candida albicans, 58288, 48 h; for MIC: pH 7
[7] = tested on: C. parapsilosis cgmcc 2.3989; experiment: Antifungal activity assay (broth microdilution, MIC/MFC); assay type: cell-based, Candida parapsilosis
[8] = tested on: C. albicans 17546; experiment: microbe, parasite or virus in culture; settings: Candida albicans, 17546, 48 h; for MIC: pH 7
[9] = tested on: C. albicans sp3876; experiment: microbe, parasite or virus in culture; settings: Candida albicans, SP3876, 48 h; for MIC: pH 7
[10] = tested on: C. albicans cgmcc 2.2086; experiment: Antifungal activity assay (broth microdilution, MIC/MFC); assay type: cell-based, Candida albicans
[11] = tested on: C. albicans 56214; experiment: microbe, parasite or virus in culture; settings: Candida albicans, 56214, 48 h; for MIC: pH 7
[12] = tested on: C. albicans sp3903; experiment: microbe, parasite or virus in culture; settings: Candida albicans, SP3903, 48 h; for MIC: pH 7
[13] = tested on: C. albicans sp3931; experiment: microbe, parasite or virus in culture; settings: Candida albicans, SP3931, 48 h; for MIC: pH 7
[14] = tested on: C. albicans 14936; settings: 14936, 48 h; for MIC: pH 7
[15] = tested on: C. albicans sp3876; settings: sp3876, 48 h; for MIC: pH 7
[16] = tested on: C. albicans 56214; settings: 56214, 48 h; for MIC: pH 7
[17] = tested on: C. albicans 17546; settings: 17546, 48 h; for MIC: pH 7
[18] = tested on: IPEC-J2 and PMEC cells; experiment: Cytotoxicity MTT assay, statements for both cell lines; settings: 24 h, 1-64 μM
[19] = tested on: C. albicans 58288; settings: 58288, 48 h; for MIC: pH 7
[20] = tested on: C. albicans sp3903; settings: sp3903, 48 h; for MIC: pH 7
[21] = tested on: PMEC cells
[22] = tested on: IPEC-J2 cells
[23] = tested on: human erythrocytes; experiment: Hemolysis assay; settings: minimal hemolytic concentration inducing 10% hemolysis of human erythrocytes; 1 h, 37°C, hemoglobin at 570 nm; probit regression; three independent experiments
[24] = tested on: Candida strains; settings: 48 h
[25] = tested on: C. albicans sp3931; settings: sp3931, 48 h; for MIC: pH 7
[26] = tested on: C. albicans 56452; settings: 56452, 48 h; for MIC: pH 7
[27] = tested on: C. albicans sp3902; settings: sp3902, 48 h; for MIC: pH 7
[28] = tested on: human erythrocytes
[29] = tested on: IPEC-J2 and PMEC cells
[30] = Candida tropicalis, CGMCC2, 50 μl of MIC wells plated on YPD agar, 28°C, 48 h, lowest concentration that completely killed fungal cells, consensus of at least three independent experiments
[31] = Candida tropicalis, CGMCC2, broth microdilution, RPMI-MOPS pH 7.0, 28°C, 48 h, lowest concentration inhibiting 99% of growth (A492)
[32] = Lodderomyces parapsilosis, CGMCC2, 50 μl of MIC wells plated on YPD agar, 28°C, 48 h, lowest concentration that completely killed fungal cells, consensus of at least three independent experiments
[33] = Lodderomyces parapsilosis, CGMCC2, broth microdilution, RPMI-MOPS pH 7.0, 28°C, 48 h, lowest concentration inhibiting 99% of growth (A492)
[34] = Candida albicans, CGMCC2, 50 μl of MIC wells plated on YPD agar, 28°C, 48 h, lowest concentration that completely killed fungal cells, consensus of at least three independent experiments
[35] = Candida albicans, CGMCC2, broth microdilution, RPMI-MOPS pH 7.0, 28°C, 48 h, lowest concentration inhibiting 99% of growth (A492)
[36] = 50 μl of MIC wells plated on YPD agar, 28°C, 48 h, lowest concentration that completely killed fungal cells, consensus of at least three independent experiments

`OC(Cn1cncn1)(Cn1cncn1)c1ccc(F)cc1F` [FLU, fluconazole] was tested, and the MFC [1] was greater than 256 µM, the MIC [1] was 32 µM (≈ 9.8 µg/mL) and the MFC [2] was greater than 256 µM. The MIC [2] was 16 µM (≈ 4.9 µg/mL), the “change of MIC after serial passage” value [3] was “eightfold” and the MFC [4, 30] was 32 µM (≈ 9.8 µg/mL). It also gave an MIC [4, 31] of 4 µM (≈ 1.23 µg/mL), an MFC [5] greater than 256 µM and an MIC [5] greater than 256 µM. For the same compound, the MFC [6] was greater than 256 µM, the MIC [6] was 8 µM (≈ 2.45 µg/mL) and the MFC [7, 32] was 8 µM (≈ 2.45 µg/mL). For the same compound, the MIC [7, 33] was 4 µM (≈ 1.23 µg/mL), the MFC [8] was greater than 256 µM and the MIC [8] was greater than 256 µM. For the same compound, the MFC [9] was greater than 256 µM, the MIC [9] was greater than 256 µM and the MFC [10, 34] was 4 µM (≈ 1.23 µg/mL). It also gave an MIC [10, 35] of 2 µM (≈ 0.613 µg/mL), an MFC [11] greater than 256 µM and an MIC [11] greater than 256 µM. The MFC [12] was 64 µM (≈ 19.6 µg/mL), the MIC [12] was 16 µM (≈ 4.9 µg/mL) and the MFC [13] was 64 µM (≈ 19.6 µg/mL). For the same compound, the MIC [13] was 1 µM (≈ 0.306 µg/mL).

KIGKVLLVKGIKKIGKVL-NH2 [KV3] was tested, and the MFC [14] was greater than 64 µM, the MIC [14] was greater than 64 µM and the MFC ([4]; cgmcc 2.1975, 48 h) was 16 µM. For the same compound, the MIC ([4]; cgmcc 2.1975, 48 h, pH 7) was 16 µM, the MFC [15] was 32 µM and the MIC [15] was 16 µM. The MFC [16] was 32 µM, the MIC [16] was 32 µM and the MFC [17] was 64 µM. The MIC [17] was 64 µM, the “cytotoxic effects (in words)” value [18] was “negligible cytotoxic effects” and the MFC [19] was 64 µM. It also gave an MIC [19] of 64 µM, an MFC ([7]; cgmcc 2.3989, 48 h) of 32 µM and an MIC ([7]; cgmcc 2.3989, 48 h, pH 7) of 32 µM. It also gave an MFC [20] of 64 µM, an MIC [20] of 64 µM and an IC50 ([21]; PMEC cells, MTT, 24 h treatment, 1-64 μM, probit regression) greater than 64 µM. The IC50 ([22]; IPEC-J2 cells, MTT, 24 h treatment, 1-64 μM, probit regression) was greater than 64 µM, the MFC ([10]; cgmcc 2.2086, 48 h) was 32 µM and the MIC ([10]; cgmcc 2.2086, 48 h, pH 7) was 32 µM. The HC10 [23] was greater than 64 µM, the “MIC values on Candida strains (range)” value [24] was 16 to 64 µM and the MFC [25] was 64 µM. For the same compound, the MIC [25] was 64 µM, the MFC [26] was 64 µM and the MIC [26] was 32 µM. For the same compound, the MFC [27] was 64 µM and the MIC [27] was 64 µM.

Work on `C[C@@H]1[C@H](O)[C@@H](C)/C=C/C=C/C=C/C=C/C=C/C=C/C=C/[C@H](O[C@@H]2O[C@H](C)[C@@H](O)[C@H](N)[C@@H]2O)C[C@@H]2O[C@](O)(C[C@@H](O)C[C@@H](O)[C@H](O)CC[C@@H](O)C[C@@H](O)CC(=O)O[C@H]1C)C[C@H](O)[C@H]2C(=O)O` [AmB, amphotericin B] yielded an MFC [1] of 0.5 µM (≈ 0.462 µg/mL), an MIC [1] of 0.25 µM (≈ 0.231 µg/mL) and an MFC [2] of 1 µM (≈ 0.924 µg/mL). For the same compound, the MIC [2] was 0.25 µM (≈ 0.231 µg/mL), the MFC [4, 30] was 2 µM (≈ 1.85 µg/mL) and the MIC [4, 31] was 1 µM (≈ 0.924 µg/mL). The MFC [5] was 2 µM (≈ 1.85 µg/mL), the MIC [5] was 1 µM (≈ 0.924 µg/mL) and the MFC [6] was 1 µM (≈ 0.924 µg/mL). It also gave an MIC [6] of 0.5 µM (≈ 0.462 µg/mL), an MFC [7, 32] of 2 µM (≈ 1.85 µg/mL) and an MIC [7, 33] of 2 µM (≈ 1.85 µg/mL). The MFC [8] was 1 µM (≈ 0.924 µg/mL), the MIC [8] was 0.25 µM (≈ 0.231 µg/mL) and the MFC [9] was 0.5 µM (≈ 0.462 µg/mL). The MIC [9] was 0.25 µM (≈ 0.231 µg/mL), the MFC [10, 34] was 1 µM (≈ 0.924 µg/mL) and the MIC [10, 35] was 1 µM (≈ 0.924 µg/mL). The MFC [11] was 2 µM (≈ 1.85 µg/mL), the MIC [11] was 1 µM (≈ 0.924 µg/mL) and the MFC [12] was 1 µM (≈ 0.924 µg/mL). For the same compound, the MIC [12] was 0.13 µM (≈ 0.12 µg/mL), the MFC [13] was 1 µM (≈ 0.924 µg/mL) and the MIC [13] was 0.25 µM (≈ 0.231 µg/mL).

For RIGRFLLFRGIRRIGRFL-NH2 [RF3], the MFC [14] was 8 µM, the MIC [14] was 8 µM and the MFC [4, 36] was 8 µM. For the same compound, the MIC ([4]; cgmcc 2.1975, 48 h, pH 7) was 8 µM, the MFC [15] was 4 µM and the MIC [15] was 4 µM. The HC10 [28] was greater than 64 µM, the MFC [16] was 8 µM and the MIC [16] was 4 µM. The MFC [17] was 16 µM, the MIC [17] was 8 µM and the “cytotoxicity at 64 μM (in words)” value [29] was “sharp rise in cytotoxicity”. The MFC [19] was 8 µM, the MIC [19] was 8 µM and the MFC [7, 36] was 16 µM. For the same compound, the MIC ([7]; cgmcc 2.3989, 48 h, pH 7) was 16 µM, the MFC [20] was 8 µM and the MIC [20] was 8 µM. The IC50 ([21]; 24 h) was 54 µM, the IC50 ([22]; 24 h) was 59.8 µM and the MFC [10, 36] was 8 µM. The MIC ([10]; cgmcc 2.2086, 48 h, pH 7) was 8 µM, the MFC [25] was 8 µM and the MIC [25] was 8 µM. It also gave an MFC [26] of 8 µM, an MIC [26] of 8 µM and an MFC [27] of 8 µM. For the same compound, the MIC [27] was 8 µM.

For KIGKFLLFKGIKKIGKFL-NH2 [KF3], the MFC [14] was 64 µM, the MIC [14] was 64 µM and the MFC [4, 36] was 8 µM. The MIC ([4]; cgmcc 2.1975, 48 h, pH 7) was 8 µM, the MFC [15] was 64 µM and the MIC [15] was 64 µM. It also gave an HC10 ([28]; red cells of human, 1 h) greater than 64 µM, an MFC [16] of 16 µM and an MIC [16] of 16 µM. For the same compound, the MFC [17] was 64 µM, the MIC [17] was 64 µM and the “cytotoxicity at 64 μM (in words)” value [29] was “sharp rise in cytotoxicity”. The MFC [19] was 32 µM, the MIC [19] was 32 µM and the MFC [7, 36] was 32 µM. The MIC ([7]; cgmcc 2.3989, 48 h, pH 7) was 32 µM, the MFC [20] was 32 µM and the MIC [20] was 32 µM. The IC50 ([21]; 24 h) was 60 µM, the IC50 ([22]; 24 h) was 48.5 µM and the MFC [10, 36] was 32 µM. For the same compound, the MIC ([10]; cgmcc 2.2086, 48 h, pH 7) was 32 µM, the MFC [25] was 32 µM and the MIC [25] was 32 µM. The MFC [26] was 16 µM, the MIC [26] was 16 µM and the MFC [27] was 16 µM. It also gave an MIC [27] of 16 µM.
